The structures appear in SMILES notation. Like-named read-outs stand apart in the source and are kept apart here.

Data set [1] can be described thus: In vitro cytotoxicity, standard MTT assay, WI38 cells. In kind it is cell-based, human. Conditions: human; for IC50 at 48 h: incubation at 37° C. for 48 h. The procedure:
(§1) Cell Culture. All cell lines were obtained from ATCC unless otherwise noted. Cells were cultured in RPMI-1640 cell culture medium (Gibco) or DMEM (Gibco), both supplemented with 5% (v/v) heat-inactivated fetal bovine serum (FBS), 5% (v/v) NuSerum, and 1% (v/v) penicillin and streptomycin (PenStrep) at 37° C. in a humidified atmosphere with 5% CO2. MX-1 and ID8 (obtained from University of Kansas Medical Center) cells were cultured as monolayers on 100 mm tissue culture dishes in supplemented RPMI-1640. L1210 and L1210FR (a gift from Dr. Gregory Russell-Jones, Access Pharmaceuticals Pty Ltd., Australia) were grown as a suspension in supplemented RPMI-1640, and WI-38 as a monolayer in supplemented DMEM. Cells were harvested, collected by centrifugation at 850 rpm for 5 min, and resuspended in fresh culture medium. Cell cultures were routinely divided by treatment with trypsin (TrypLE, Gibco) as needed every 2-4 days and collected by centrifugation at 850 rpm for 5 min, and resuspended in fresh cell culture medium, containing varying cell densities for subsequent biological experiments and analysis.
(§2) In Vitro Cytotoxicity Assays. […] Cells were harvested, collected, and resuspended in 100 μL cell culture medium at concentrations ranging from 0.5-1.5×10^4 cells per well in a 96-well plate. For adhesive cell types, cells were allowed to descend to the bottom of the wells overnight, and fresh medium was added to each well upon removal of the old medium.
(§3) For the MTT assay (Table 1 and the Assay 1 in Table 2) of paclitaxel, taxoid 3 and conjugates 1 and 15, cells were resuspended in 200 μL medium with 8,000 to 10,000 cells per well of a 96-well plate and incubated at 37° C. for 24 h before drug treatment. In DMSO stock solutions, each drug or conjugate was diluted to a series of concentrations in cell culture medium to prepare test solutions. After removing the old medium, these test solutions were added to the wells in the 96-well plate to give the final concentrations ranging from 0.5 to 5,000 nM (100 μL), and the cells were subsequently cultured at 37° C. for 48 h (Table 1) or 72 h (Table 2, Assay 1). For the leukemia cell lines, L1210 and L1210FR, cells were harvested, collected, and resuspended in the test solutions ranging from 0.5 to 5,000 nM (100 μL) at 0.5 to 0.8 ×10^4 cells per well in a 96-well plate and subsequently incubated at 37° C. for 48 h (Table 1) or 72 h (Table 2, Assay 1).
(§4) In the Assay 2 (Table 2), cells were incubated with 1 or 15 at 37° C. for 24 h, and the drug medium was removed. Then, treated cells were thoroughly washed with PBS, and GSH-OEt (6 equiv. to conjugate) in cell culture medium (200 μL) was added to the wells. These cells were incubated at 37° C. for an additional 48 h, i.e., the total incubation time was 72 h.
(§5) In the Assay 3 (Table 2), cells were incubated with 1 or 15 at 37° C. for 24 h, and GSH-OEt (6 equivalents) in cell culture medium (100 μL) was directly added to the wells. These cells were incubated at 37° C. for an additional 48 h, i.e. the total incubation time was also 72 h.
(§6) For all experiments, after removing the test medium, fresh solution of MTT in PBS (40 μL of 0.5 mg MTT/mL) was added to the wells, and the cells were incubated at 37° C. for 3 h. The MTT solution was then removed, and the resulting insoluble violet formazan crystals were dissolved in 0.1 N HCl in isopropanol with 10% Triton X-100 (40 μL) to give a violet solution. The spectrophotometric absorbance measurement of each well in the 96-well plate was run at 570 nm using a Labsystems Multiskan Ascent microplate reader. The IC50 values and their standard errors were calculated from the viability-concentration curve using Four Parameter Logistic Model of Sigmaplot. The concentration of DMSO per well was ≤1% in all cases. Each experiment was run in triplicate.

For data set [2], the system named is BR+ cancer cell lines (L1210FR, MX-1, ID8). As to the kind of experiment: MTT cytotoxicity summarised over BR+ cancer cell lines. The class given is cell-based. Particulars: for Cancer cell selectivity (BR-specificity), BR+ cancer cells vs BR− WI38 cells: Assay 2. The procedure: as §2, §3, §4, §5, §6
Thus, the Assay 1 results provide the potency of conjugates in the same manner as that for the first assay summarized in Table 1, but for longer incubation time (48 h vs. 72 h). […] Accordingly, this assay may mimic the corresponding in vivo assay conditions, wherein non-internalized conjugates would be removed from the tumor, redistributed and eventually excreted. […] Thus, in principle, the results (IC50 values) in this assay should be very close to those for the control using taxoid 3 (entry 2).

Data set [3] concerns ID8 murine ovarian carcinoma cell line (BR+). Put plainly: In vitro cytotoxicity, standard MTT assay, ID8 cells. In kind it is cell-based. Particulars: Mus musculus, Ovarian carcinoma cell, read-out: Cytotoxicity IC50, ID8. Here is the method:
as §1, §2
as §3, with “After removing the old medium, these test solutions were added to the wells in the 96-well plate to give the final concentrations ranging from 0.5 to 5,000 nM (100 μL), and the cells were subsequently cultured at 37° C. for 48 h (Table 1) or 72 h (Table 2, Assay 1).” left out
as §6
A general note: Tetrazolium dyes change colour on reduction, which living cells bring about.

Data set [4] concerns L1210FR murine lymphocytic leukemia cell line (BR+). As to the kind of experiment: In vitro cytotoxicity, standard MTT assay, L1210FR cells. In kind it is cell-based. Particulars: Mus musculus. Here is the method: as §1, §2, §3, §4, §5, §6
Data set [5] concerns L1210 murine lymphocytic leukemia cell line (BR−). Put plainly: In vitro cytotoxicity, standard MTT assay, L1210 cells. In kind it is cell-based. Conditions: Mus musculus, read-out: Cytotoxicity IC50, L1210. Here is the method: as §1, §2, §3, §6
Data set [6] has as its system MX-1 human breast carcinoma cell line (BR+). As to the kind of experiment: In vitro cytotoxicity, standard MTT assay, MX-1 cells. In kind it is cell-based. Particulars: Homo sapiens, Breast carcinoma cell. The procedure:
as §1, §2, §3, §4, §5, §6

The test system of data set [7] is WI38 human lung fibroblast cell line (BR−). As to the kind of experiment: In vitro cytotoxicity, standard MTT assay, WI38 cells. The class given is cell-based. Here is the method: as §1, §2, §3, §4, §5, §6
Where [8] appears, read: 24 h incubation, PBS wash, then GSH-OEt (6 equiv.) and additional 48 h, read-out: Cytotoxicity IC50, WI38, Assay 2.
The mark [9] stands for this setting: 24 h incubation, then GSH-OEt (6 equiv.) added without washing, additional 48 h, read-out: Cytotoxicity IC50, WI38, Assay 3.
The mark [10] stands for this setting: 72 h incubation, no GSH-OEt, read-out: Cytotoxicity IC50, WI38, Assay 1.
The mark [11] stands for this setting: 24 h, PBS wash, GSH-OEt, additional 48 h, range over conjugates 1 and 15, read-out: IC50 range against BR+ cancer cells (MX-1, L1210FR), Assay 2.
Setting [12] is: GSH-OEt added after 24 h without PBS washing, additional 48 h, range over conjugates 1 and 15, read-out: IC50 range against MX-1 and L1210FR, third assay (Assay 3).
Where [13] appears, read: 48 h, read-out: Cytotoxicity IC50, L1210FR.
Where [14] appears, read: 72 h, read-out: Cytotoxicity IC50, L1210FR, Assay 1.
[15] abbreviates: read-out: Cytotoxicity IC50, L1210FR, Assay 2.
Where [16] appears, read: read-out: Cytotoxicity IC50, L1210FR, Assay 3.
[17] abbreviates: 48 h, read-out: Cytotoxicity IC50, MX-1.
[18] abbreviates: 72 h, read-out: Cytotoxicity IC50, MX-1, Assay 1.
Setting [19] is: read-out: Cytotoxicity IC50, MX-1, Assay 2.
[20] abbreviates: read-out: Cytotoxicity IC50, MX-1, Assay 3.

The IC50 is the concentration needed to halve the response being measured. For `CC(=O)O[C@@]12CO[C@@H]1C[C@H](O)[C@@]1(C)C(=O)[C@H](OC(=O)C3CC3)C3=C(C)[C@@H](OC(=O)[C@H](OC(=O)Cc4ccccc4SSC(C)C(=O)NCCNc4nc(NCCOCCOCCOCCNC(=O)CCCC[C@@H]5SC[C@@H]6NC(=O)N[C@@H]65)nc(NCc5cn(CCOCCOCCOCCF)nn5)n4)[C@H](C=C(C)C)NC(=O)OC(C)(C)C)C[C@@](O)([C@@H](OC(=O)c4ccccc4)[C@H]21)C3(C)C` (stereo partly shown) [Conjugate 1], the concentration for half-maximal inhibition (IC50) at 72 h came out at 615 ± 97 nM in data set [1] (setting [8]), 12.9 ± 4.3 nM in data set [1] (setting [9]) and 682 ± 110 nM in data set [1] (setting [10]). In addition, in data set [1], inhibition was half-maximal at 709 nM (IC50 at 48 h). Besides, the 50% inhibitory concentration (IC50) in data set [2] (setting [11]) is 3.85 to 6.6 nM; in data set [2] (48 h, read-out: Cytotoxicity IC50, range over L1210FR, MX-1 and ID8), 6 to 21 nM; in data set [2] (setting [12]) it was 2.4 to 2.92 nM; in data set [3] (48 h), 6.62 ± 0.86 nM; in data set [4] (setting [13]), 14.7 ± 4 nM; in data set [4] (setting [14]) it was 10.2 ± 3 nM. Further, the IC50 in data set [4] (setting [15]) stood at 6.6 ± 3.96 nM; in data set [4] (setting [16]), 2.79 ± 1.43 nM; in data set [5] (L1210, 48 h), 593 nM; in data set [6] (setting [17]), 21.2 ± 4.6 nM; in data set [6] (setting [18]) it was 6.27 ± 2.06 nM; in data set [6] (setting [19]) it was 4.79 ± 0.12 nM. In addition, the IC50 in data set [6] (setting [20]) turned out to be 2.56 ± 0.15 nM. Also, the “Cancer cell selectivity (BR-specificity), BR+ cancer cells vs BR− WI38 cells” value in data set [2] was “two-orders of magnitude difference”.
Consider `CC(=O)O[C@@]12CO[C@@H]1C[C@H](O)[C@@]1(C)C(=O)[C@H](OC(=O)C3CC3)C3=C(C)[C@@H](OC(=O)[C@H](O)[C@H](C=C(C)C)NC(=O)OC(C)(C)C)C[C@@](O)([C@@H](OC(=O)c4ccccc4)[C@H]21)C3(C)C` [Taxoid 3, SB-T-1214, reference compound], for which the half-inhibitory concentration (IC50) at 72 h in data set [1] (setting [10]) stood at 4.89 ± 2.24 nM. For the same molecule, inhibition in data set [1] was half-maximal at 5.23 ± 0.27 nM (IC50 at 48 h). The IC50 in data set [2] (72 h incubation, read-out: IC50 range of free taxoid against MX-1 and L1210FR) was 2.32 to 2.66 nM; in data set [3] (48 h) it was 0.17 ± 0.14 nM; in data set [4] (setting [13]), 4.18 ± 1.8 nM; in data set [4] (setting [14]), 2.32 ± 1.41 nM; in data set [5] (L1210, 48 h) it was 7.05 ± 1.38 nM; in data set [6] (setting [17]), 4.13 ± 2.59 nM. For the same molecule, the IC50 in data set [6] (setting [18]) was 2.66 ± 0.16 nM.
Turning to `CC(=O)O[C@H]1C(=O)[C@@]2(C)[C@H]([C@H](OC(=O)c3ccccc3)[C@]3(O)C[C@H](OC(=O)[C@H](O)[C@@H](NC(=O)c4ccccc4)c4ccccc4)C(C)=C1C3(C)C)[C@]1(OC(C)=O)CO[C@@H]1C[C@@H]2O` [paclitaxel, reference compound], the IC50 in data set [7] (setting [10]) amounted to 55.7 ± 9.54 nM; in data set [7] (incubation at 37° C. for 48 h, read-out: Cytotoxicity IC50, WI38), 61.4 ± 12.7 nM; in data set [3] (incubation at 37° C. for 48 h), 14.4 ± 1.81 nM; in data set [4] (72 h incubation, no GSH-OEt, read-out: Cytotoxicity IC50, L1210FR, Assay 1), 35.6 ± 8.2 nM; in data set [4] (incubation at 37° C. for 48 h, read-out: Cytotoxicity IC50, L1210FR), 38.7 ± 17.7 nM; in data set [5] (L1210, incubation at 37° C. for 48 h), 77.1 ± 12.8 nM. For the same molecule, the half-maximal inhibitory concentration (IC50) in data set [6] (72 h incubation, no GSH-OEt, read-out: Cytotoxicity IC50, MX-1, Assay 1) was determined as 4.07 ± 0.8 nM; in data set [6] (incubation at 37° C. for 48 h, read-out: Cytotoxicity IC50, MX-1), 7.23 ± 0.68 nM.
Take `CC(=O)O[C@@]12CO[C@@H]1C[C@H](O)[C@@]1(C)C(=O)[C@H](OC(=O)C3CC3)C3=C(C)[C@@H](OC(=O)[C@H](OC(=O)Cc4ccccc4SSC(C)CCC(=O)NNC(=O)CCCC[C@@H]4SC[C@@H]5NC(=O)N[C@@H]54)[C@H](C=C(C)C)NC(=O)OC(C)(C)C)C[C@@](O)([C@@H](OC(=O)c4ccccc4)[C@H]21)C3(C)C` (stereo partly shown) [Conjugate 15, Biotin-(SS-Linker)-SB-T-1214]: the results for the IC50 at 72 h in data set [1] (setting [8]), in data set [1] (setting [9]) and in data set [1] (setting [10]) were 590 ± 164 nM, 11 ± 3.1 nM and 645 ± 97 nM, respectively. In data set [1], this molecule displayed an IC50 at 48 h of 670 ± 89 nM. In addition, the IC50 in data set [2] (setting [11]) is 3.85 to 6.6 nM; in data set [2] (setting [12]), 2.4 to 2.92 nM; in data set [3] (48 h), 4.32 ± 1.58 nM; in data set [4] (setting [13]) it was 13.4 ± 6.8 nM; in data set [4] (setting [14]), 12.3 ± 2.8 nM; in data set [4] (setting [15]), 5.15 ± 2.85 nM. For the same molecule, the half-inhibitory concentration (IC50) in data set [4] (setting [16]) is 2.92 ± 2.34 nM; in data set [5] (L1210, 48 h), 481 ± 34 nM; in data set [6] (setting [17]) it was 15.4 ± 4.2 nM; in data set [6] (setting [18]), 4.66 ± 0.87 nM; in data set [6] (setting [19]) it was 3.85 ± 0.14 nM; in data set [6] (setting [20]), 2.4 ± 0.18 nM. In addition, the “Cancer cell selectivity (BR-specificity), BR+ cancer cells vs BR− WI38 cells” value in data set [2] is listed as “two-orders of magnitude difference”.
